Source: patent publication US12503455B2, “Nucleic acid-binding photoprobes and uses thereof” (Arrakis Therapeutics, Inc., priority 2017, dated 2025)

Columns and labels:
[1] = system: Aptamer 21; assay: Capture of Aptamer 21 from a defined mixture of RNAs; assay type: binding
Experimental: A sample of folded RNA was prepared containing 1 μM each of Myc HP PA, Aptamer 21, FMN, MYC_3WJ-HP_N3G, and PreQ1 RNAs in folding buffer (20 mM TrisHCl pH 8, 100 mM KCl, 3 mM MgCl2). A 95 μL sample of this solution was added to a 5 μL aliquot of 0.2 mM ARK-670 (probe) or ARK-139 (control) in DMSO. The reaction was incubated for 30 min at 37° C., irradiated with long wave UV light (˜365 nm) for 30 min in a UV crosslinker (Fisher Scientific), and then cooled on ice. The excess probe and buffer was then removed by passing the sample through an Illustra MicroSpin G-25 spin column (GE Healthcare) according to the manufacturer's protocol.
For each treatment, a 75 μL aliquot of the crosslinked RNA was mixed with 0.75 μL of 10% Tween-20 and 0.45 μL of 0.5 M EDTA pH 8 solution. A 50 μL aliquot of MyOne Streptavidin C1 Dynabead slurry (Thermo) was captured on a magnet, washed twice with 50 μL of 1× bind/wash buffer (20 mM TrisHCl pH 7, 100 mM KCl, 0.1% Tween-20), and then resuspended in 50 μL of the crosslinked RNA sample. The bead suspension was rotated at room temperature for 60 min and then washed twice with 100 μL of 1× bind/wash solution. […]
To remove excess primer, the sample was mixed with 4.5 μL of ExoSAP-IT, incubated at 37° C. for 15 min, and then quenched with 1 μL of 0.5 M EDTA pH 8. […] The concentration was determined by absorbance at 260 nm. […]

[2] = system: Aptamer 21; assay: Biotin-photoaffinity probe cross-linking and streptavidin bead pull-down gel assay; assay type: binding; conditions: Aptamer 21 compared with Aptamer 21-E

Structure (SMILES): COC(=O)C1=C(COCc2cn(CCOCCOCCNC(=O)[C@H](CCCCNC(=O)c3ccc(N=[N+]=[N-])cc3)NC(=O)CCCC[C@@H]3SC[C@@H]4NC(=O)N[C@@H]43)nn2)NC(c2ccncc2)=NC1c1ccc(F)cc1Cl (stereo partly drawn) [ARK-670]
- RT pausing signal from probe adducts ([1]; Aptamer 21, Aptamer 21-E, or mixture of Aptamer 21 and four other RNAs): specific for Aptamer 21
- enrichment of RNAs after cross-linking, avidin bead enrichment and sequencing ([1]; mixture of Aptamer 21 and four other RNAs): only Aptamer 21 was enriched
- pull-down of RNA on streptavidin beads after cross-linking [2]: Only the Aptamer 21 RNA showed significant pull-down
